# From ChEMBL document CHEMBL1142784, “Discovery and in vitro evaluation of potent kinase inhibitors: Pyrido[1',2':1,5]pyrazolo[3,4-d]pyrimidines” (Bioorg Med Chem Lett, 2005)
# Tests used:
# [1] = target: Vascular endothelial growth factor receptor (Homo sapiens, UniProt P17948+P35916+P35968); assay: Inhibitory concentration against VEGFR(10 nM) by using homogeneous time-resolved fluorescence detection in pH 7.5
# [2] = target: Glycogen synthase kinase-3 (Homo sapiens, UniProt P49840+P49841); assay: Inhibitory concentration against GSK3-beta by using [gamma-33P]-ATP as radioligand expressed in Escherichia coli in pH 7.2 for 19 min at room temperature
# [3] = target: Epidermal growth factor receptor (Homo sapiens, UniProt P00533); assay: Inhibitory concentration against EGFR by using [gamma-33P]-ATP as radioligand in pH 7.5
# [4] = target: Receptor tyrosine-protein kinase erbB-2 (Homo sapiens, UniProt P04626); assay: Inhibitory concentration against ErbB-2 protein tyrosine kinase by using [gamma-33P]-ATP as radioligand in pH 7.5
# Receptor tyrosine-protein kinase erbB-2, sequence (P04626 whole entry): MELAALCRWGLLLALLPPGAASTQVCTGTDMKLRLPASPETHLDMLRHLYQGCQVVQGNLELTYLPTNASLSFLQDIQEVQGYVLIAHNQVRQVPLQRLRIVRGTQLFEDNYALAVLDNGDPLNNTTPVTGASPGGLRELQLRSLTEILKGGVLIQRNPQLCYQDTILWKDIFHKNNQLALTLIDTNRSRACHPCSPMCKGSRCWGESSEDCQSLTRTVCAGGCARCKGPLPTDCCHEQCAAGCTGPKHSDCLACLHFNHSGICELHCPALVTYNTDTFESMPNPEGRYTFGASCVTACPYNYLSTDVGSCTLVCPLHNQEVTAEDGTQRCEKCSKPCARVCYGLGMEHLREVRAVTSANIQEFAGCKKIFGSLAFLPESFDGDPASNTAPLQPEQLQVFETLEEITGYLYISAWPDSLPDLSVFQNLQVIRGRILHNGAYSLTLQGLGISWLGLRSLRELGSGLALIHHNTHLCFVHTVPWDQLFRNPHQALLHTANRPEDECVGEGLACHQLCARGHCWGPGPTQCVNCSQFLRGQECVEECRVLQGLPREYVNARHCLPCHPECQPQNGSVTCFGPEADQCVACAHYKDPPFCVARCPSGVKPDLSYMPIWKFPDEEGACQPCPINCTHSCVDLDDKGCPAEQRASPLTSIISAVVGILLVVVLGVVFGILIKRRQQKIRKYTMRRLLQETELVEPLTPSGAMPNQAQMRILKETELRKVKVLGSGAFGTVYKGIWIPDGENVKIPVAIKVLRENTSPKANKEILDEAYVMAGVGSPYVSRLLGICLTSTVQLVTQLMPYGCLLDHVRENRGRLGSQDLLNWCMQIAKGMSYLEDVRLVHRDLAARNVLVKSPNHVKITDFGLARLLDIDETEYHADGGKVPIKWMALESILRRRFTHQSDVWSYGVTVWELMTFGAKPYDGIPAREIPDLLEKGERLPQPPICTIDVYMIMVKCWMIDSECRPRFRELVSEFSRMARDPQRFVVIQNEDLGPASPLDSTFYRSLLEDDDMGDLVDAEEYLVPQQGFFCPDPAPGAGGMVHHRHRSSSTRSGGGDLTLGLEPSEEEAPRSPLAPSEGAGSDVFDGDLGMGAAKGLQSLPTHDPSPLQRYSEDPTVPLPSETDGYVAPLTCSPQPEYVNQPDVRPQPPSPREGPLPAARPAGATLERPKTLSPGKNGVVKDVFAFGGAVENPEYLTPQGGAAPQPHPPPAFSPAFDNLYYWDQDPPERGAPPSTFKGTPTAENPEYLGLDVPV
# Epidermal growth factor receptor, sequence (P00533 whole entry): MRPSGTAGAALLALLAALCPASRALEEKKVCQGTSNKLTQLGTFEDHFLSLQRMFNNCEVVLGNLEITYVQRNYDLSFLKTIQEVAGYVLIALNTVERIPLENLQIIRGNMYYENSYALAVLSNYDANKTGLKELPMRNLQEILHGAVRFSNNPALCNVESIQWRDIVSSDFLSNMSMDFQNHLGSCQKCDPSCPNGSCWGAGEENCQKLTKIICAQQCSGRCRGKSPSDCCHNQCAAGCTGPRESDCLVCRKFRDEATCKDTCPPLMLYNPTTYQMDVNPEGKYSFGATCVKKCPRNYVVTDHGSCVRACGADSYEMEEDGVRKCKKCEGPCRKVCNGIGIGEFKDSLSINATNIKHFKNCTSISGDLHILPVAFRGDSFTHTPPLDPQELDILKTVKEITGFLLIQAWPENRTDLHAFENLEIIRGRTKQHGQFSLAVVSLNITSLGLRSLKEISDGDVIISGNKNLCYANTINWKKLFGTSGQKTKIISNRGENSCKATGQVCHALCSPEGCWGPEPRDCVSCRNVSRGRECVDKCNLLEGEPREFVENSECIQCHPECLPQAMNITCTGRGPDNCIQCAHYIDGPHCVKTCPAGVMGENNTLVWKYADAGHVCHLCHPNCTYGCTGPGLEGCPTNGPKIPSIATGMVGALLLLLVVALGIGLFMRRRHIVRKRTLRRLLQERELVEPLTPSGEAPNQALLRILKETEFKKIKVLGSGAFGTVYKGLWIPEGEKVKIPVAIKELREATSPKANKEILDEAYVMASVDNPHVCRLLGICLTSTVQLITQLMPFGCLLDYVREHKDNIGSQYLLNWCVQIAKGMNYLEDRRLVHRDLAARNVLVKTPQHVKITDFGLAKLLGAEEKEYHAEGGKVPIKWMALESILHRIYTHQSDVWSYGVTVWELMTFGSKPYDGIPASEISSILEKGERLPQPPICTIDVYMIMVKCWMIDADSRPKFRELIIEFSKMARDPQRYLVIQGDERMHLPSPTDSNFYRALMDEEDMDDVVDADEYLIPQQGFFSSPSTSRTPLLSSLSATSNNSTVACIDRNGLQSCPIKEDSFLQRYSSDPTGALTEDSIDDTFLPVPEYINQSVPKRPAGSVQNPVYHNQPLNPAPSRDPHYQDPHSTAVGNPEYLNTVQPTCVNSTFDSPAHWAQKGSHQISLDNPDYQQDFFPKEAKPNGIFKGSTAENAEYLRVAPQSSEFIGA
Structure (SMILES),IC50 [1] [µM],IC50 [2] [µM],IC50 [3] [µM],IC50 [4] [µM]
O=C(Nc1ccc(F)cc1)Nc1ncnc2nn3ccccc3c12,0.631,> 10,,
O=C(Nc1cccc([N+](=O)[O-])c1)Nc1ncnc2nn3ccccc3c12,> 10,0.316,,
O=C(Nc1cccc(C(F)(F)F)c1)Nc1ncnc2nn3ccccc3c12,0.251,0.158,,
N#Cc1cccc(NC(=O)Nc2ncnc3nn4ccccc4c23)c1,0.2,0.126,,
Clc1cc(Nc2ncnc3nn4ccccc4c23)ccc1OCc1ccccc1,,,0.05,0.2

# Now from value to molecule:
IC50 [1] [µM],IC50 [2] [µM],IC50 [3] [µM],IC50 [4] [µM],Structure (SMILES)
,,> 10,> 10,Nc1ncnc2nn3ccccc3c12
3.98,1,,,O=C(Nc1ccc(Br)cc1)Nc1ncnc2nn3ccccc3c12
3.98,1.58,,,O=C(Nc1ccc(C(F)(F)F)cc1)Nc1ncnc2nn3ccccc3c12
,,5.01,1.58,c1ccc(Cc2nc3ccc(Nc4ncnc5nn6ccccc6c45)cc3[nH]2)cc1
